According to the supplement of paper PMC10307832:

Assays:
Assay in all cases: relative viability (nuclei count vs DMSO), 5 days (fraction); higher = more cells survive
Temozolomide + Foretinib = compound: Cn1nnc2c(C(N)=O)ncn2c1=O [Temozolomide] + COc1cc2c(Oc3ccc(NC(=O)C4(C(=O)Nc5ccc(F)cc5)CC4)cc3F)ccnc2cc1OCCCN1CCOCC1 [Foretinib] (partner 0.25 µM)
Method in brief: (§1)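 Each reported value is a median over duplicate plates. It expresses relative viability: treated-well nuclei count divided by vehicle-well nuclei count. Lung cancer cell lines in 1536-well plates were dosed by pin tool a day after seeding, alone with one drug or with a fixed anchor-drug dose plus five library-drug doses (not always all listed) in √10 steps, and nuclei were counted after 5 days.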

[1] = compound: Cn1nnc2c(C(N)=O)ncn2c1=O [Temozolomide] + CC(=O)Nc1cccc(-n2c(=O)n(C3CC3)c(=O)c3c(Nc4ccc(I)cc4F)n(C)c(=O)c(C)c32)c1 [Trametinib] (partner 0.02 µM)
Method in brief: as §1

AZD5582 + Dasatinib = compound: C[C@@H](C(=O)N[C@@H](C1CCCCC1)C(=O)N2CCC[C@H]2C(=O)N[C@@H]3[C@@H](CC4=CC=CC=C34)OCC#CC#CCO[C@@H]5CC6=CC=CC=C6[C@@H]5NC(=O)[C@@H]7CCCN7C(=O)[C@H](C8CCCCC8)NC(=O)[C@H](C)NC)NC [AZD5582] + Cc1nc(Nc2ncc(C(=O)Nc3c(C)cccc3Cl)s2)cc(N2CCN(CCO)CC2)n1 [Dasatinib] (partner 0.075 µM)
Method in brief: as §1

[2] = compound: Cn1nnc2c(C(N)=O)ncn2c1=O [Temozolomide] + CS(=O)(=O)N1CCN(Cc2cc3nc(-c4cccc5[nH]ncc45)nc(N4CCOCC4)c3s2)CC1 [Pictilisib] (partner 1 µM)
Method in brief: as §1

## PC-3 [JPC-3]
Temozolomide + Foretinib; first compound 0.2 µM
  relative viability: 1.11
Temozolomide + Foretinib; first compound 0.6325 µM
  relative viability: 1.03
Temozolomide + Foretinib; first compound 2 µM
  relative viability: 0.998
Temozolomide + Foretinib; first compound 6.325 µM
  relative viability: 1.03
Temozolomide + Foretinib; first compound 20 µM
  relative viability: 0.526
[1]; first compound 0.2 µM
  relative viability: 0.547
[1]; first compound 0.6325 µM
  relative viability: 0.769
[1]; first compound 2 µM
  relative viability: 0.821
[1]; first compound 6.325 µM
  relative viability: 0.724
[1]; first compound 20 µM
  relative viability: 0.433
AZD5582 + Dasatinib; first compound 0.001581 µM
  relative viability: 0.861
AZD5582 + Dasatinib; first compound 0.005 µM
  relative viability: 0.794
AZD5582 + Dasatinib; first compound 0.01581 µM
  relative viability: 0.97
AZD5582 + Dasatinib; first compound 0.05 µM
  relative viability: 0.193
[2]; first compound 0.2 µM
  relative viability: 0.71
[2]; first compound 0.6325 µM
  relative viability: 0.775
[2]; first compound 2 µM
  relative viability: 0.798
[2]; first compound 6.325 µM
  relative viability: 0.774
[2]; first compound 20 µM
  relative viability: 0.296

## PC-14
Temozolomide + Foretinib; first compound 0.2 µM
  relative viability: 1.07
Temozolomide + Foretinib; first compound 0.6325 µM
  relative viability: 0.98
Temozolomide + Foretinib; first compound 2 µM
  relative viability: 1.03
Temozolomide + Foretinib; first compound 6.325 µM
  relative viability: 1.01
Temozolomide + Foretinib; first compound 20 µM
  relative viability: 0.202
[1]; first compound 0.2 µM
  relative viability: 0.96
[1]; first compound 0.6325 µM
  relative viability: 0.766
[1]; first compound 2 µM
  relative viability: 0.758
[1]; first compound 6.325 µM
  relative viability: 0.813
[1]; first compound 20 µM
  relative viability: 0.585
AZD5582 + Dasatinib; first compound 0.001581 µM
  relative viability: 0.258
AZD5582 + Dasatinib; first compound 0.005 µM
  relative viability: 0.302
AZD5582 + Dasatinib; first compound 0.01581 µM
  relative viability: 0.219
AZD5582 + Dasatinib; first compound 0.05 µM
  relative viability: 0.257
[2]; first compound 0.2 µM
  relative viability: 0.834
[2]; first compound 0.6325 µM
  relative viability: 0.791
[2]; first compound 2 µM
  relative viability: 0.737
[2]; first compound 6.325 µM
  relative viability: 0.614
[2]; first compound 20 µM
  relative viability: 0.0773

## RERF-LC-KJ
Temozolomide + Foretinib; first compound 0.2 µM
  relative viability: 0.888
Temozolomide + Foretinib; first compound 0.6325 µM
  relative viability: 0.928
Temozolomide + Foretinib; first compound 2 µM
  relative viability: 0.875
Temozolomide + Foretinib; first compound 6.325 µM
  relative viability: 0.936
Temozolomide + Foretinib; first compound 20 µM
  relative viability: 0.901
[1]; first compound 0.2 µM
  relative viability: 0.788
[1]; first compound 0.6325 µM
  relative viability: 0.815
[1]; first compound 2 µM
  relative viability: 0.763
[1]; first compound 6.325 µM
  relative viability: 0.845
[1]; first compound 20 µM
  relative viability: 0.826
AZD5582 + Dasatinib; first compound 0.01581 µM
  relative viability: 0.723
AZD5582 + Dasatinib; first compound 0.05 µM
  relative viability: 0.696
[2]; first compound 0.2 µM
  relative viability: 0.625
[2]; first compound 0.6325 µM
  relative viability: 0.564
[2]; first compound 2 µM
  relative viability: 0.557
[2]; first compound 6.325 µM
  relative viability: 0.501
[2]; first compound 20 µM
  relative viability: 0.467

## SK-LU-1
Temozolomide + Foretinib; first compound 0.2 µM
  relative viability: 0.954
Temozolomide + Foretinib; first compound 0.6325 µM
  relative viability: 0.849
Temozolomide + Foretinib; first compound 2 µM
  relative viability: 0.585
Temozolomide + Foretinib; first compound 6.325 µM
  relative viability: 0.444
Temozolomide + Foretinib; first compound 20 µM
  relative viability: 0.342
[1]; first compound 0.2 µM
  relative viability: 0.534
[1]; first compound 0.6325 µM
  relative viability: 0.487
[1]; first compound 2 µM
  relative viability: 0.44
[1]; first compound 6.325 µM
  relative viability: 0.382
[1]; first compound 20 µM
  relative viability: 0.361
AZD5582 + Dasatinib; first compound 0.001581 µM
  relative viability: 0.147
AZD5582 + Dasatinib; first compound 0.005 µM
  relative viability: 0.0852
AZD5582 + Dasatinib; first compound 0.01581 µM
  relative viability: 0.174
AZD5582 + Dasatinib; first compound 0.05 µM
  relative viability: 0.0634
[2]; first compound 0.2 µM
  relative viability: 0.688
[2]; first compound 0.6325 µM
  relative viability: 0.62
[2]; first compound 2 µM
  relative viability: 0.544
[2]; first compound 6.325 µM
  relative viability: 0.295
[2]; first compound 20 µM
  relative viability: 0.281

## SK-MES-1
Temozolomide + Foretinib; first compound 0.2 µM
  relative viability: 0.972
Temozolomide + Foretinib; first compound 0.6325 µM
  relative viability: 1.05
Temozolomide + Foretinib; first compound 2 µM
  relative viability: 1.09
Temozolomide + Foretinib; first compound 6.325 µM
  relative viability: 0.892
Temozolomide + Foretinib; first compound 20 µM
  relative viability: 0.521
[1]; first compound 0.2 µM
  relative viability: 0.656
[1]; first compound 0.6325 µM
  relative viability: 0.578
[1]; first compound 2 µM
  relative viability: 0.663
[1]; first compound 6.325 µM
  relative viability: 0.539
[1]; first compound 20 µM
  relative viability: 0.58
AZD5582 + Dasatinib; first compound 0.001581 µM
  relative viability: 0.246
AZD5582 + Dasatinib; first compound 0.005 µM
  relative viability: 0.445
AZD5582 + Dasatinib; first compound 0.01581 µM
  relative viability: 0.367
AZD5582 + Dasatinib; first compound 0.05 µM
  relative viability: 0.279
[2]; first compound 0.2 µM
  relative viability: 0.279
[2]; first compound 0.6325 µM
  relative viability: 0.362
[2]; first compound 2 µM
  relative viability: 0.424
[2]; first compound 6.325 µM
  relative viability: 0.331
[2]; first compound 20 µM
  relative viability: 0.282

## SW 1573
Temozolomide + Foretinib; first compound 0.2 µM
  relative viability: 0.861
Temozolomide + Foretinib; first compound 0.6325 µM
  relative viability: 0.915
Temozolomide + Foretinib; first compound 2 µM
  relative viability: 0.79
Temozolomide + Foretinib; first compound 6.325 µM
  relative viability: 0.725
Temozolomide + Foretinib; first compound 20 µM
  relative viability: 0.938
[1]; first compound 0.2 µM
  relative viability: 0.688
[1]; first compound 0.6325 µM
  relative viability: 0.504
[1]; first compound 2 µM
  relative viability: 0.56
[1]; first compound 6.325 µM
  relative viability: 0.583
[1]; first compound 20 µM
  relative viability: 0.474
AZD5582 + Dasatinib; first compound 0.001581 µM
  relative viability: 0.56
AZD5582 + Dasatinib; first compound 0.005 µM
  relative viability: 0.732
AZD5582 + Dasatinib; first compound 0.01581 µM
  relative viability: 0.573
AZD5582 + Dasatinib; first compound 0.05 µM
  relative viability: 0.566
[2]; first compound 0.2 µM
  relative viability: 0.595
[2]; first compound 0.6325 µM
  relative viability: 0.517
[2]; first compound 2 µM
  relative viability: 0.517
[2]; first compound 6.325 µM
  relative viability: 0.483
[2]; first compound 20 µM
  relative viability: 0.428

## UMC-11
Temozolomide + Foretinib; first compound 0.2 µM
  relative viability: 1.11
Temozolomide + Foretinib; first compound 0.6325 µM
  relative viability: 1.06
Temozolomide + Foretinib; first compound 2 µM
  relative viability: 1.16
Temozolomide + Foretinib; first compound 6.325 µM
  relative viability: 0.872
Temozolomide + Foretinib; first compound 20 µM
  relative viability: 0.57
[1]; first compound 0.2 µM
  relative viability: 0.728
[1]; first compound 0.6325 µM
  relative viability: 0.749
[1]; first compound 2 µM
  relative viability: 0.786
[1]; first compound 6.325 µM
  relative viability: 0.643
[1]; first compound 20 µM
  relative viability: 0.519
AZD5582 + Dasatinib; first compound 0.001581 µM
  relative viability: 0.424
AZD5582 + Dasatinib; first compound 0.005 µM
  relative viability: 0.455
AZD5582 + Dasatinib; first compound 0.01581 µM
  relative viability: 0.447
AZD5582 + Dasatinib; first compound 0.05 µM
  relative viability: 0.414
[2]; first compound 0.2 µM
  relative viability: 1.08
[2]; first compound 0.6325 µM
  relative viability: 0.917
[2]; first compound 2 µM
  relative viability: 0.893
[2]; first compound 6.325 µM
  relative viability: 0.729
[2]; first compound 20 µM
  relative viability: 0.442
